# “Also recorded” adds a separate entry of the source.
# Assays:
# monocyte IL-6 production = assay: NB-monocyte co-culture, IL-6 ELISA of supernatant; assay type: cell-based, human
# Method: (§1) Monocytes were directly cultured with wild-type or TNF, TNFR1, TNFR2 KO NB cell lines in ULA plates for 24 hours. Activation of NF-kB in monocytes and NB was measured by flow cytometry and cytokine production measured by ELISA from co-culture supernatant. To evaluate the contact-dependence of monocyte activation by NB, monocytes were cultured in ULA plates with seven-day NB conditioned medium mixed 1:1 with complete monocyte medium for 24 hours and analyzed for IL-6 production. To assess the growth advantage of NB cultured with monocytes, NB-luc cell lines and monocytes were seeded in tissue culture-treated white 96-well plates (1:1 ratio) and cultured for four days. Luminescence was measured using a TECAN Spark plate reader (TECAN). To evaluate changes in proliferation, NB was pulsed for 10 minutes in CellTrace Violet (2 μM, Invitrogen) and seeded at 100,000 cells per well in a 12-well tissue culture-treated plate. Monocytes were added directly to the NB monolayer at a density of 100,000 per well and incubated for four days. CellTrace Violet expression was analyzed by flow cytometry.
# (§2) Cytokines released by monocytes were detected within co-culture supernatants using the Human TNF-alpha Quantikine ELISA Kit (TNFα, R&D Systems) and the Human IL-6 Quantikine ELISA Kit (IL-6, R&D Systems) according to manufacturer's guidelines. ELISA plates were read using a TECAN Spark plate reader (TECAN). Global cytokine regulation was evaluated using a custom Luminex panel containing the following cytokines: CX3CL1, CXCL10, EGF, FGF-2, Flt3L, G-CSF, GM-CSF, IL-1α, IL-1β, IL-1Ra, IL-4, IL-6, IL-8, IL-10, IL-12 (p40), IL-12 (p′70), M-CSF, MCP-1, MCP-3, MDC, MIP-1α, MIP-1β, TGFα, TNFα, TNFβ, and VEGF-A (Human Cytokine Panel A, Millipore-Sigma).
# sTNFα production = assay: NB-monocyte co-culture, TNFα ELISA of supernatant; assay type: cell-based, human
# Method: as §1, §2
# [1] = tested on: NF-κB signaling in monocytes; assay: Intracellular IκBα in monocyte population of co-culture (PhosFlow flow cytometry); assay type: cell-based, human; settings: TAPI 40 μM, 24 hours, vs vehicle control
# Method: as §1
# (§3) To evaluate the expression of TNFα in NB and monocytes, cells were first stimulated with LPS (50 ng/mL) in the presence of GolgiStop (BD Biosciences) and fixed using CytoFix/Cytoperm buffer (BD Biosciences). Cells were then stained with TNFα-PE (BD Biosciences). To evaluate the expression of TNFR1 and TNFR2 on NB and monocytes, cells were stained with TNFR1-BV421 and TNFR2-APC (BD Biosciences) in FACS staining buffer containing 0.05% sodium azide to prevent receptor/antibody processing. To estimate changes in NF-kB expression, treated co-cultures were first stained with ZombieViolet (1 μL/test, Biolegend) to counterstain dead cells and APC-H7 CD45 and/or FITC-CD14 to label monocytes for 20 minutes at room temperature. […] All flow samples were run using an LSRII 5-laser flow cytometer (Texas Children's Hospital Cancer Center Flow Cytometry Core, Houston, Tex.) and analyzed using FlowJo Software (Treestar).
# [2] = tested on: NF-κB signaling in NB cells; assay: Intracellular IκBα in NB population of co-culture (PhosFlow flow cytometry); assay type: cell-based, human; settings: TAPI 40 μM, 24 hours, vs vehicle control (FIG. 23C)
# Method: as §1, §3
# mTNFα = settings: TAPI 40 μM, 24 hours, CD45+GD2− monocyte population
# Method: (FIG. 13C) NB and monocyte co-cultures were treated with TNF converting enzyme inhibitor TAPI (40 μM) or vehicle control (Veh., 0.2% DMSO) for 24 hours. Surface expression of mTNFα within CD45+GD2− monocyte population was performed using flow cytometry. MFI as indicated. Data are from a representative of two experiments run in duplicate.
Structure (SMILES),"IL-6 production from monocytes (monocyte IL-6 production; CHLA-255/monocyte co-culture, IKKi 0-1000 nM (FIG. 12C, FIG. 19))","IL-6 production in NB-monocyte co-cultures (monocyte IL-6 production; IKK inhibitor VII 125 nM, 24 hours, vs 0.1% DMSO (FIG. 1C))","soluble (s)TNFα production from monocytes (sTNFα production; CHLA-255/monocyte co-culture, IKKi 0-1000 nM (FIG. 12D, FIG. 19))","IL-6 levels in co-culture supernatant (monocyte IL-6 production; TAPI 40 μM, 24 hours, vs vehicle control)","reduction in sTNFα levels in co-culture supernatant (sTNFα production; TAPI 40 μM, 24 hours) [%]",intracellular IκBα expression in monocytes [1],IκBα expression level in NB cells [2],increase in surface staining for mTNFα (mTNFα) [%]
O=C(c1ccc(Nc2nccc(-c3cc4ccccc4s3)n2)cc1)N1CCC(N2CCCC2)CC1 [IKK inhibitor VII],dose-dependent abrogation,reversed IL-6 production,dose-dependent abrogation,,,,,
"CC(C)C[C@H](CC(=O)NO)C(=O)N[C@@H](Cc1ccc2ccccc2c1)C(=O)N[C@@H](C)C(=O)NCCN [TAPI, TAPI-1]",,,,increased the activation of monocytes as measured by IL-6 levels; also recorded: significantly increased IL-6 levels,90,no effect,significant increase in IκBα expression level,40

# From patent US20230103554A1, “TNFa SIGNALING [sequence] TUMOR-PROMOTING INFLAMMATION THAT CAN BE TARGETED TO THERAPY” (Baylor College of Medicine, priority 2020, published 2023)
